Test results reported in patent publication US8871786B2, “Azaindazole amide compounds as CCR1 receptor antagonists” (Boehringer Ingelheim International GmbH, priority 2010, dated 2014).

Target: T1, CCR1 (Homo sapiens, UniProt P32246)
T1 sequence (P32246 1-355): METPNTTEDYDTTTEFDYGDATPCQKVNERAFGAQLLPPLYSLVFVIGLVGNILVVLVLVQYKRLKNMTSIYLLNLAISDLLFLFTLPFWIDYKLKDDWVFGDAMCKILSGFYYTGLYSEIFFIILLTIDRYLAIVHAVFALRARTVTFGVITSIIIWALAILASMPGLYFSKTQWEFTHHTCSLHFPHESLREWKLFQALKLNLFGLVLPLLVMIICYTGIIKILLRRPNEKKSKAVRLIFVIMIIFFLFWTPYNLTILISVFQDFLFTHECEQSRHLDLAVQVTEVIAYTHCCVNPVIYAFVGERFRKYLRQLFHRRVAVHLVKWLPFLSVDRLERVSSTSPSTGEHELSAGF
Assay: Calcium flux assay in CCR1 transfected cells (block of CCR1/MIP-1α interaction)
Assay type: cell-based
Conditions: cells stably expressing recombinant CCR1 and G-alpha-16; MIP-1 alpha at EC80; mean
Experimental: Compounds are assessed for the ability to block the interaction of CCR1 and MIP-1α in a functional cellular assay measuring calcium flux in CCR1 transfected cells.
Non-adherent cells purchased from Chemicon Corporation (HTS005C), stably expressing recombinant CCR1 and G-alpha-16 are grown in RPMI 1640 medium (Mediatech 10-080-CM) supplemented with 10% FBS, 0.4 mg/mL Geneticin and penicillin/streptomycin. On the day of the assay, the cells are loaded with Calcium 4 dye (Molecular Devices R7448) with Probenecid (Invitrogen P346400) at 8E5 cells/mL for 1 hour at room temperature. After 1 hour, they are seeded in a 384-well tissue culture-treated plate at a density of 20,000 cells/well. Appropriately diluted test compound is added to the well to achieve a top concentration of 3,000 nM (diluted 4-fold with 10 doses total). The final concentration of DMSO is 1%. The buffer is HBSS (Invitrogen 14025) with 20 mM HEPES at pH 7.4. The cells incubate 30 minutes at 37 C and then 30 minutes at room temperature. The plates are transferred to the HAMAMATSU FDSS6000 where MIP-1 alpha in 1% BSA is added at the EC80 final concentration. All plates must be read within 4 hours of the start of dye-loading. Wells+/−MIP-1 alpha containing diluted DMSO instead of compound serve as the controls. Data are analyzed using Activity Base software.

In order of rising IC50:
1. Cc1cc(C)c(S(C)(=O)=O)cc1NC(=O)c1cncc2c1cnn2-c1ccc(F)cc1  2.1 nM
2. Cc1cc(Cl)cc(C)c1NC(=O)c1cncc2c1cnn2-c1ccc(F)cc1  2.8 nM
3. Cc1noc(C)c1NC(=O)c1cncc2c1cnn2-c1ccc(F)cc1  6.9 nM
4. Cc1nc(Cl)ccc1NC(=O)c1cncc2c1cnn2-c1ccc(F)cc1  8.8 nM
5. Cc1onc(-c2ccccc2)c1NC(=O)c1cncc2c1cnn2-c1ccc(F)cc1  14 nM
6. Cc1cc(C)c(NC(=O)c2cncc3c2cnn3-c2ccc(F)cc2)c(C)c1  19 nM
7. Cc1ccnc(C)c1NC(=O)c1cncc2c1cnn2-c1ccc(F)cc1  21 nM
8. COC(=O)c1ccc(NC(=O)c2cncc3c2cnn3-c2ccc(F)cc2)c(C)c1  24 nM
9. Cc1cc(-c2nnco2)ccc1NC(=O)c1cncc2c1cnn2-c1ccc(F)cc1  30 nM
10. Cc1cccc(Cl)c1NC(=O)c1cncc2c1cnn2-c1ccc(F)cc1  36 nM
11. Cc1cc(C(=O)N(C)C)ccc1NC(=O)c1cncc2c1cnn2-c1ccc(F)cc1  66 nM
12. Cn1nccc1-c1cccc(NC(=O)c2cncc3c2cnn3-c2ccc(F)cc2)c1  73 nM
13. Cc1ccc(NC(=O)c2cncc3c2cnn3-c2ccc(F)cc2)c(Cl)n1  82 nM
14. Cn1ncc(-c2ccccc2)c1NC(=O)c1cncc2c1cnn2-c1ccc(F)cc1  84 nM
15. CNC(=O)c1ccc(NC(=O)c2cncc3c2cnn3-c2ccc(F)cc2)c(C)c1  93 nM
